Laboratory results reported in patent publication US6939869B2, “Pyrrolo[2,1-c][1,4] benzodiazepine-indole derivatives, their preparation process, and uses of the same” (Kaohsiung Medical University, priority 2002, dated 2005).

Key:
[1] = system: EKVX (non-small cell lung cancer); test: NCI in vitro anticancer assay, growth inhibition, EKVX; assay type: cell-based; details: Homo sapiens, read-out: GI50 (concentration causing 50% cell growth inhibition)
Description: (§1) The tested human tumor cell lines are as follows: (1) CCRF-CEM, K-562, MOLT-4 and SR of leukemia; (2) A549/ATCC, EKVX, HOP-62, HOP-92, NCI-H226, NCI-H23, NCI-H322M, NCI-H460a and NCI-H522 of non-small cell lung cancer; (3) COLO 205, HCC-2998, HCT-116, HCT-15, HT29, KM12 and SW-620 of colon cancer; (4) SF-268, SF-295, SF-539, SNB-19, SNB-75 and U251 of CNS cancer; (5) LOX IMVI, MALME-3M, M14, SK-MEL-2, SK-MEL-28, SK-MEL-5, UACC-257 and UACC-62 of melanoma; (6) IGROV1, OVCAR-3, OVCAR-4, OVCAR-5, OVCAR-8 and SK-OV-3 of ovarian cancer; (7) 786-0, A498, ACHN, CAKI-1, RXF 393, SN12C, TK-10 and UO-31 of renal cancer; (8) […] and DU-145 of prostate cancer; and (9) MCF7, MCF7/ADR-RES, MDA-MB-231/ATCC, HS 578T, MDA-MB-435, MDA-N, BT-549 and T-47D of breast cancer.
(§2) For each compound, the dose-response curves for each tested tumor cell line were measured with five different dose concentrations, and the concentration causing 50% cell growth inhibition (GI50) compared with the control was calculated.

[2] = system: NCI-H522 (non-small cell lung cancer); test: NCI in vitro anticancer assay, growth inhibition, NCI-H522; assay type: cell-based; details: Homo sapiens, read-out: GI50 (concentration causing 50% cell growth inhibition)
Description: as §1, §2

COLO 205 (colon cancer) = test: NCI in vitro anticancer assay, growth inhibition, COLO 205; assay type: cell-based; details: Homo sapiens, read-out: GI50 (concentration causing 50% cell growth inhibition)
Description: as §1, §2

HT29 (colon cancer) = test: NCI in vitro anticancer assay, growth inhibition, HT29; assay type: cell-based; details: Homo sapiens, HT-29, read-out: GI50 (concentration causing 50% cell growth inhibition)
Description: as §1, §2

SF-268 (CNS cancer) = test: NCI in vitro anticancer assay, growth inhibition, SF-268; assay type: cell-based; details: Homo sapiens, read-out: GI50 (concentration causing 50% cell growth inhibition)
Description: as §1, §2

U251 (CNS cancer) = test: NCI in vitro anticancer assay, growth inhibition, U251; assay type: cell-based; details: Homo sapiens, U-251, read-out: GI50 (concentration causing 50% cell growth inhibition)
Description: as §1, §2

RXF 393 (renal cancer) = test: NCI in vitro anticancer assay, growth inhibition, RXF 393; assay type: cell-based; details: Homo sapiens, read-out: GI50 (concentration causing 50% cell growth inhibition)
Description: as §1, §2

SN12C (renal cancer) = test: NCI in vitro anticancer assay, growth inhibition, SN12C; assay type: cell-based; details: Homo sapiens, read-out: GI50 (concentration causing 50% cell growth inhibition)
Description: as §1, §2

[3] = system: 60 human tumor cell lines; test: NCI in vitro anticancer assay, mean over 60 cell lines; assay type: cell-based; details: mean values over 60 cell lines tested
Description: as §1, §2
Table 1 summarizes the respective GI50 values and mean GI50 values for the tested compounds in relation to all the 60 tumor cell lines.

[4] = In vivo hollow fiber assay (NCI); details: intraperitoneal (IP) and subcutaneous (SC) samples, total score of 20 or more considered active
Description: The compounds obtained from the above Synthesis Ex. 1 and Synthesis Ex. 2 were further examined in an in vivo hollow fiber assay conducted by the National Cancer Institute (NCI) in the United States, in which an intraperitoneal (IP) sample and a subcutaneous (SC) sample were tested. In this assay, if a tested compound is observed to have a total score of IP score and SC score […]20, it will be considered to be active and to have the potential as an anti-tumor/anti-cancer drug candidate. According to the confidential report of the Developmental Therapeutics Program issued by NCI on Apr.

| Compound | GI50 [1] [nM] | GI50 [2] [nM] | GI50 (COLO 205 (colon cancer)) [nM] | GI50 (HT29 (colon cancer)) [nM] | GI50 (SF-268 (CNS cancer)) [nM] | GI50 (U251 (CNS cancer)) [nM] | GI50 (RXF 393 (renal cancer)) [nM] | GI50 (SN12C (renal cancer)) [nM] | GI50 ([3]; Homo sapiens, 60 cell) [nM] | GI50 [3] [nM] | total score of IP score and SC score [4] |
| --- | --- | --- | --- | --- | --- | --- | --- | --- | --- | --- | --- |
| COc1cc2c(cc1OC(=O)c1cc3ccccc3[nH]1)N=C[C@@H]1CCCN1C2=O [Synthesis Ex. 1] | 674 | 198 | 196 | 185 | 669 | 302 | 155 | 210 | ≤ 380 | 380 | 22 |
| COc1cc2c(cc1OCCCNC(=O)c1cc3ccccc3[nH]1)N=C[C@@H]1CCCN1C2=O [Synthesis Ex. 2] | 604 | 14.1 | 118 | 274 | 27 | 39.4 | 25 | 410 |  |  | 30 |
